Test results taken from ChEMBL document CHEMBL1128832, “Substituted alkylpyridines as P3 ligands for the hydroxyethylpiperazine class of HIV-1 protease inhibitors: Improved pharmacokinetic profiles” (Bioorg Med Chem Lett, 1995).

Tests used:
MT4 = experiment: Antiviral activity in MT-4 human lymphoid cells infected with IIIB isolate by viral spread assay; assay type: functional; conditions: read-out: CIC95
[1] = Half life to reach the blood concentration was determined in dogs after oral administration (10 mg/kg) as a 0.05 M citric acid solution.; assay type: ADME, organism-based, Canis lupus familiaris; conditions: dog
[2] = Area under curve was determined in dogs after oral administration (10 mg/kg) as a 0.05 M citric acid solution.; assay type: ADME, organism-based, Canis lupus familiaris; conditions: dog, in vivo
[3] = Maximum plasma concentration in dogs after oral administration (10 mg/kg) as a 0.05 M citric acid solution.; assay type: ADME, organism-based, Canis lupus familiaris; parameters: dose 10 mg/kg, route oral; conditions: dog
[4] = Maximum time taken to reach maximum blood concentration was determined in dogs after oral administration (10 mg/kg) as a 0.05 M citric acid solution.; assay type: ADME, organism-based, Canis lupus familiaris; conditions: dog
[5] = target: Human immunodeficiency virus type 1 protease (Human immunodeficiency virus 1, UniProt Q72874); experiment: In vitro inhibitory activity against HIV-1 protease enzyme.
[6] = Half life to reach the blood concentration was determined in dogs after oral administration (8 mg/kg) as a 0.05 M citric acid solution.; assay type: ADME, organism-based, Canis lupus familiaris; conditions: dog
[7] = Area under curve was determined in dogs after oral administration (8 mg/kg) as a 0.05 M citric acid solution.; assay type: ADME, organism-based, Canis lupus familiaris; conditions: dog, in vivo
[8] = Maximum time taken to reach maximum blood concentration was determined in dogs after oral administration (8 mg/kg) as a 0.05 M citric acid solution.; assay type: ADME, organism-based, Canis lupus familiaris; conditions: dog
[9] = Maximum plasma concentration in dogs after oral administration (8 mg/kg) as a 0.05 M citric acid solution.; assay type: ADME, organism-based, Canis lupus familiaris; parameters: dose 8 mg/kg, route oral; conditions: dog

| SMILES | IC95 (MT4) [nM] | half-life [1] [min] | AUC [2] [µM·h] | Cmax [3] [µM] | Tmax [4] [min] | IC50 [5] [nM] | half-life [6] [min] | AUC [7] [µM·h] | Tmax [8] [min] | Cmax [9] [µM] |
| --- | --- | --- | --- | --- | --- | --- | --- | --- | --- | --- |
| CC(C)c1cc(CN2CCN(C[C@@H](O)[C@H](Cc3ccccc3)NC(=O)O[C@@H]3CCS(=O)(=O)[C@@H]3C(C)C)[C@H](C(=O)NC(C)(C)C)C2)cc(C(C)C)n1 | 50 |  |  |  |  |  |  |  |  |  |
| Cc1cc(CN2CCN(C[C@@H](O)[C@H](Cc3ccccc3)NC(=O)O[C@@H]3CCS(=O)(=O)[C@@H]3C(C)C)[C@H](C(=O)NC(C)(C)C)C2)ccn1 | 75 | 121 | 7.4 | 8.6 | 10 |  |  |  |  |  |
| CCC(C)c1cc(CN2CCN(C[C@@H](O)[C@H](Cc3ccccc3)NC(=O)O[C@@H]3CCS(=O)(=O)[C@@H]3C(C)C)[C@H](C(=O)NC(C)(C)C)C2)ccn1 (stereo not given in full) | 25 |  |  |  |  | 1.2 |  |  |  |  |
| CCc1cc(CN2CCN(C[C@@H](O)[C@H](Cc3ccccc3)NC(=O)O[C@@H]3CCS(=O)(=O)[C@@H]3C(C)C)[C@H](C(=O)NC(C)(C)C)C2)ccn1 | 81 | 91 | 5.4 | 4.1 | 20 |  |  |  |  |  |
| CC(C)c1cc(CN2CCN(C[C@@H](O)[C@H](Cc3ccccc3)NC(=O)O[C@@H]3CCS(=O)(=O)[C@@H]3C(C)C)[C@H](C(=O)NC(C)(C)C)C2)ccn1 | 67 |  |  |  |  |  |  |  |  |  |
| Cc1cc(CN2CCN(C[C@@H](O)[C@H](Cc3ccccc3)NC(=O)O[C@@H]3CCS(=O)(=O)[C@@H]3C(C)C)[C@H](C(=O)NC(C)(C)C)C2)cc(C)n1 | 50 |  |  |  |  |  | 28 | 4.5 | 40 | 3.6 |
| CCc1cc(CN2CCN(C[C@@H](O)[C@H](Cc3ccccc3)NC(=O)O[C@@H]3CCS(=O)(=O)[C@@H]3C(C)C)[C@H](C(=O)NC(C)(C)C)C2)cc(CC)n1 | 42 | 36 | 2.9 | 3 | 25 |  |  |  |  |  |
| CCCc1cc(CN2CCN(C[C@@H](O)[C@H](Cc3ccccc3)NC(=O)O[C@@H]3CCS(=O)(=O)[C@@H]3C(C)C)[C@H](C(=O)NC(C)(C)C)C2)ccn1 | 12 |  |  |  |  |  | 21 | 1.5 | 25 | 2.3 |
| CC(C)[C@@H]1[C@H](OC(=O)N[C@@H](Cc2ccccc2)[C@H](O)CN2CCN(Cc3ccncc3)C[C@H]2C(=O)NC(C)(C)C)CCS1(=O)=O | 200 | 24 | 4.3 | 6.7 | 25 |  |  |  |  |  |
| CCCCc1cc(CN2CCN(C[C@@H](O)[C@H](Cc3ccccc3)NC(=O)O[C@@H]3CCS(=O)(=O)[C@@H]3C(C)C)[C@H](C(=O)NC(C)(C)C)C2)cc(CCCC)n1 | 25 |  |  |  |  |  |  |  |  |  |
